According to the supplement of paper PMC10307832:

Tests used:
Experiment in all cases: relative viability (nuclei count vs DMSO), 5 days (fraction); higher = more cells survive
BEN = test system: BEN
Method in brief: (§1)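 Five library-drug doses in √10 steps were combined with a fixed anchor-drug dose, or a single drug was given alone, by pin tool to lung cancer cell lines in 1536-well plates the day after seeding. Nuclei were stained and counted after 5 days. Relative viability is the nuclei count in treated wells over that in vehicle wells, taken as the median of duplicate plates.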

EPLC-272H = test system: EPLC-272H
Method in brief: as §1

HCC-827 = test system: HCC-827
Method in brief: as §1

HOP-62 = test system: HOP-62
Method in brief: as §1

LU99A = test system: LU99A
Method in brief: as §1

LXF-289 = test system: LXF-289
Method in brief: as §1

NCI-H1437 = test system: NCI-H1437
Method in brief: as §1

NCI-H1666 = test system: NCI-H1666
Method in brief: as §1

NCI-H1915 = test system: NCI-H1915
Method in brief: as §1

NCI-H2170 = test system: NCI-H2170
Method in brief: as §1

NCI-H2342 = test system: NCI-H2342
Method in brief: as §1

## C=C1C(=O)O[C@@H](CCCCCCCC)[C@@H]1C(=O)O [C-75] + Nc1ncn([C@H]2C[C@H](O)[C@@H](CO)O2)c(=O)n1 [Decitabine] (partner 2 µM)
BEN; first compound 0.08 µM
  relative viability: 0.764
BEN; first compound 0.253 µM
  relative viability: 0.733
BEN; first compound 0.8 µM
  relative viability: 0.654
BEN; first compound 2.53 µM
  relative viability: 0.738
BEN; first compound 8 µM
  relative viability: 0.713
EPLC-272H; first compound 0.08 µM
  relative viability: 0.338
EPLC-272H; first compound 0.253 µM
  relative viability: 0.436
EPLC-272H; first compound 0.8 µM
  relative viability: 0.334
EPLC-272H; first compound 2.53 µM
  relative viability: 0.33
EPLC-272H; first compound 8 µM
  relative viability: 0.349
HCC-827; first compound 0.253 µM
  relative viability: 0.333
HCC-827; first compound 0.8 µM
  relative viability: 0.277
HCC-827; first compound 8 µM
  relative viability: 0.262
HOP-62; first compound 0.08 µM
  relative viability: 0.22
HOP-62; first compound 0.253 µM
  relative viability: 0.217
HOP-62; first compound 0.8 µM
  relative viability: 0.218
HOP-62; first compound 2.53 µM
  relative viability: 0.23
HOP-62; first compound 8 µM
  relative viability: 0.161
LU99A; first compound 0.08 µM
  relative viability: 0.831
LU99A; first compound 0.253 µM
  relative viability: 0.78
LU99A; first compound 0.8 µM
  relative viability: 0.841
LU99A; first compound 2.53 µM
  relative viability: 0.83
LU99A; first compound 8 µM
  relative viability: 0.79
LXF-289; first compound 0.08 µM
  relative viability: 0.361
LXF-289; first compound 0.253 µM
  relative viability: 0.396
LXF-289; first compound 0.8 µM
  relative viability: 0.317
LXF-289; first compound 2.53 µM
  relative viability: 0.3
LXF-289; first compound 8 µM
  relative viability: 0.399
NCI-H1437; first compound 0.08 µM
  relative viability: 0.57
NCI-H1437; first compound 0.253 µM
  relative viability: 0.586
NCI-H1437; first compound 0.8 µM
  relative viability: 0.577
NCI-H1437; first compound 8 µM
  relative viability: 0.48
NCI-H1666; first compound 0.08 µM
  relative viability: 0.741
NCI-H1666; first compound 0.253 µM
  relative viability: 0.786
NCI-H1666; first compound 0.8 µM
  relative viability: 0.709
NCI-H1666; first compound 2.53 µM
  relative viability: 0.638
NCI-H1666; first compound 8 µM
  relative viability: 0.678
NCI-H1915; first compound 0.08 µM
  relative viability: 0.254
NCI-H1915; first compound 0.253 µM
  relative viability: 0.24
NCI-H1915; first compound 0.8 µM
  relative viability: 0.296
NCI-H1915; first compound 2.53 µM
  relative viability: 0.24
NCI-H1915; first compound 8 µM
  relative viability: 0.225
NCI-H2170; first compound 0.08 µM
  relative viability: 0.479
NCI-H2170; first compound 0.253 µM
  relative viability: 0.505
NCI-H2170; first compound 0.8 µM
  relative viability: 0.449
NCI-H2170; first compound 2.53 µM
  relative viability: 0.422
NCI-H2170; first compound 8 µM
  relative viability: 0.401
NCI-H2342; first compound 0.08 µM
  relative viability: 0.749
NCI-H2342; first compound 0.253 µM
  relative viability: 0.785
NCI-H2342; first compound 0.8 µM
  relative viability: 0.667
NCI-H2342; first compound 2.53 µM
  relative viability: 0.57
NCI-H2342; first compound 8 µM
  relative viability: 0.722
